According to patent US11957769B2, “Polyhydroxy fullerene sunscreen active agents and compositions” (THE CLEVELAND CLINIC FOUNDATION, priority 2016, dated 2024):

Assays:
[1] = UV-Visible absorbance spectra of PHF solution vs commercial SPF60 sunscreen; type: physicochemical; settings: PHF solution 0.5 mg/mL in 25% glycerol
Protocol: The inventors discovered that PHF absorbs UV more effectively than commercial sunscreens. For initial comparisons (FIG. 2), the UV-Vis absorption of PHF solution at 0.5 mg/mL (prepared in 25% glycerol) was compared with Neutrogena SPF 60 (4.9% Titanium dioxide and 4.7% Zinc oxide) sunscreen at 5 mg/mL (in de-ionized water). The total concentration of AI in the commercial sunscreen suspension was equal to that of PHF (0.5 mg/mL) solution. PHF is a broad spectrum UV absorber, as its critical wavelength of 381 nm and UVA/UVB ratio of 1.6 exceeds the FDA limit of 370 nm and 0.91, respectively. The absorbance of PHF is 2.5-1.9 times higher in the UVB region (280-320 nm) and 1.9-1.5 times higher in the UVA region (320-400 nm) than SPF60 sunscreen. This high UV absorptive ability of PHF (for preventing direct damage from UVB and UVA) becomes even more important when combined with other potential advantages of PHF (preventing indirect free radical mediated damage) over current sunscreen AIs, as summarized in Table 1 and FIG. 3.

skin sections = assay: Blinded scoring of erythema and edema of UVB-exposed skin sections in a preclinical model; type: in vivo; settings: UVB 120 mJ/cm^2, 48 hours, blinded panel
Protocol: PHF is a single, multifunctional active that replaces multiple actives of current sunscreen formulations. […] The concentration of PHF was optimized and the minimum concentration of PHF that prevents symptoms of sunburn (erythema and edema) was determined. In a preclinical model, different skin sections were applied with PHF formulation, SPF60 commercial sunscreen, vehicle (without PHF) samples and control (no application). All skin sections were exposed to UVB at 120 mJ/cm^2 dose. The skin sections were monitored for erythema (redness) and edema (swelling) at 24, 48 and 72 hours. Maximum erythema is usually observed at 48 hours. The photographs of skin sections at 48 hours were scored by a panel consisting of two dermatologists and two non-dermatologists. The panel was blinded to the identity of the samples. The result of blinded scoring study is plotted in FIG. 5. […] [table]

[2] = Photolability, comparison of sunscreen actives (Table 1); type: physicochemical; settings: Table 1 comparison of actives
[3] = cited from earlier work
[4] = cited from earlier work; remark: listed apart in the source
Nrf2 pathway = settings: Ye et al. 2014; cited from earlier work
hairless SKH-1 mice = assay: UV damage in skin of hairless SKH-1 mice after topical PHF
Protocol: PHF (obtained from MER Corp.) was dissolved in water and applied on the right flank (2 cm×1 cm) of the dorsal region of hairless SKH-1 mice. The left flank (2 cm×1 cm) of the same mouse was used as a control with topical application of deionized water. The topical applications were allowed to dry for 15 minutes followed by UV exposure (80 mJ/cm^2; 90% UVB and 10% UVA). […] Mice were euthanized 48 hours post-UV exposure, and the skin was harvested for histological analysis or immunofluorescent staining.

[5] = 48 hours post-UV exposure, vs water control flank

## polyhydroxy fullerene [PHF]
[1]; FDA limit 0.91
  UVA/UVB ratio: 1.6
[1]; FDA limit 370 nm
  critical wavelength: 381 nm
Skin sections
  erythema and edema score vs commercial SPF60 sunscreen: on par with commercial SPF60 sunscreen
Skin sections; α=0.01
  erythema and edema score vs control and vehicle only: reduced erythema and edema significantly
[2]
  Photolabile: No
[3]; Krishna et al. 2008
  free radical generation on UV absorption: without generating free radicals
[3]; Table 1 comparison of actives
  Potential ROS generation: None
[4]; Table 1 comparison of actives
  ROS susceptibility: Catalytically
[4]; superoxide, nitric oxide, etc., Yin et al. 2009
  neutralization of free radicals: can catalytically neutralize different types of free radicals
Nrf2 pathway
  Nrf2 pathway activation: activates the Nrf2 pathway
Hairless SKH-1 mice; 24 hours after UV exposure (80 mJ/cm^2; 90% UVB and 10% UVA), topical PHF in water vs water control flank
  erythema (sunburn): did not show any signs of erythema
Hairless SKH-1 mice; [5]
  DNA photoproducts (cyclopyrimidine dimers, CPD): fewer DNA photoproducts
  epidermal cell death (dyskeratotic sunburn cells), histology: marked reduction in epidermal cell death
  recovery of proliferation (Ki-67): faster recovery of proliferation
